Experimental data published in article PMC9894226 (Proceedings of the National Academy of Sciences of the …, 2022).
Non-standard residues stand in square brackets, D forms with d. Residues, ends and D or L forms follow the SMILES beside them. Nle = CCCC[C@H](N)C(=O)O

Assays:
[1] = pH 7.4; ref [67]; cited from earlier work
[2] = system: C. elegans CL2355; assay: Chemotaxis assay in transgenic C. elegans; type: in vivo, Caenorhabditis elegans; conditions: fed 0.5, 5 and 50 μM; untreated CL2355 0.18 ± 0.01, CL2122 0.29 ± 0.01
[3] = system: 5xFAD mice; assay: PET/CT imaging in 5xFAD mice; type: in vivo, mouse; conditions: 6-mo-old 5xFAD mice, 1 h post injection

Compound	Chemotaxis index (CI) of CL2355 mutants [2]	also measured
O=C(O)CN1CCN(CC(=O)O)CCN(CC(=O)O)CC1 [NOTA, 2,2′,2”-(1,4,7-triazacyclononane-1,4,7-triyl)triacetic acid]		Thermodynamic stability constant of Cu^2+ complex (log KML) [1]: 23.33
CCCC[C@@H]1NC(=O)[C@@H](CC(C)C)NC(=O)[C@H](CCCCN)NC(=O)[C@@H](CO)NC(=O)[C@H](Cc2c[nH]cn2)NC(=O)[C@@H](C)NC1=O [[w4a]-1, c-(D-Leu-Nle-D-Ala-His-D-Ser-Lys)] (cyclo(H[dS]K[dL][Nle][dA]))	significantly less protective than peptide 1	
[11CH3]Nc1ccc(-c2nc3ccc(O)cc3s2)cc1 [^11C-PIB, ^11C-Pittsburgh compound B]		Hippocampal uptake (PET) [3]: 1.038 ± 0.028 %ID/g
H-[dL][Nle][dW]H[dS]K-OH [Lin-1]	significantly less protective than peptide 1	
